Legend:
cTnI = assay: Model cTnI immunoassay with chelate-labelled detection antibodies; settings: for Abs max: antibody labelled with the chelate
Description: Labeling was performed in 10 mM botate buffer, pH 8.6-9.0 using 30-fold molar excess of chelates. Reactions were normally carried out overnight at +4° C. or at room temperature. Labeled antibodies were purified on Superfex 200 HR 10/30 or Superdex 200 HiLoad 26/60 gel filtration columns using Tris-saline-azide […], 9.0 g/L NaCl, and 0.5 g/L NaN3), pH 7.75 as an elution buffer. The fractions containing the antibody were pooled and the europium concentrations measured against europium calibrator. The purified antibody comjugate and the labeling ratio (i.e. chelates per protein) were quantified by calculating the protein yield or by measureing the absorbance at 280 nm and subtracting the absorption caused by the added chelate.
An earlier published nine dentate label {2,2′,2″,2′″-{[2-(4-isothiocyanato-phenyl)ethylimino]bis(methylene)bis{4-{[4-(α-galactopyranoxy)phenyl]ethynyl}-pyridine-bis(methylenenitrilo)}tetrakis(acetato)}europium(III) (von Loden, P., et al., 2003, Anal. Chem. 75, 3193) was used as a reference label.
Two labels 49 and 54 were tested in a model cTnl assay. The cTnl immunoassays were performed by using biotinylated capture cTnl antibodies together with the labelled cTnl detection antibodies described above and according to the main principles described in published method (von Loden, P., et al., 2003, Anal. Chem. 75, 3193). The combined assay/wash buffer contained 5 mmol HEPES, 2.1 g/L NaCl, 0.1 mmol EDTA, 0.055 g/L Tween 20 and 1 g/L Gernall II, pH 7.75. The capture biotinylated antibodies were pre-incubated in assay wells. The standards followed by the detection label antibody diluted in 20 μl and 10 μl assay buffer, respectively, were applied to the wells. After one hour incubation at 36 C, the wells were washed, dried and measured.

[1] = Luminescence measurements of Eu(III) chelates with the ligands; assay type: physicochemical; settings: Eu(III) complex of the ligand; 10 mM NH3-HCl buffer, pH 8.3
Description: FC=Flash chromatography. RT=room temperature. Microwave synthesizer was Initiator system (Biotage). ^1H NMR and ^13C NMR spectra were recorded on a Bruker AVANCE 500 DRX (Bruker, Karlsruhe, Germany) by using SiMe4 as internal standard and chemical shifts δ are in ppm. Mass spectra were recoded on a Voyager DE Pro (Applied Biosystems, Foster City, Calif.) mass spectrometer. HPLC runs were performed by Dionex's Ultimate 3000 system including Dionex's Ultimate 3000 Diode Array Detector. The used column was ThermoHypersil 150×4 mm 5μ Hypersil® ODS. Used eluents were 100 mM TEAA and CH3CN. Runs were performed by using an eluent gradient starting from 75% H2O, 20% 100 mM TEAA and 5% CH3CN and within 30 min to 30% H2O, 20% TEAA and 50% CH3CN. For the HPLC, sample concentration was aprox. 1 mg of chelate in 1 ml water. The sampling volume was 20-25 μl. The instrumentation, measurement and calculation principles for the molar absorptivities (ε), excitation maxima (λexc), luminescence lifetimes (τ), quantum yields (Φ), and triplet stage energies (T) see e.g. Räsänen, M., et al., 2014, J. Luminescence, 146, 211-217.
The luminescence parameters for Eu(III) complexes with ligands 11, 12, 14, 27, 28, and 35 were measured in 10 mM NH3-HCl buffer, pH 8.3. The molar absorptivities (c), excitation maxima (λexc ), luminescence lifetimes (τ), quantum yields (Φ), calculated luminescence yields (ε×Φ) and triplet stage (T) are presented in Table 1.

[2] = Photo-physical properties of chelates conjugated to taurine; assay type: physicochemical; settings: 50 mM TRIS buffer (pH 7.75)
Description: The prepared isothiocyante activated chelates (65 and 79) were conjugated to taurine as described above in Example 68. The products were purified with semi-preparative reversed phase HPLC (RP-18 column). After the product fractions were evaporated the residues were dissolved in 50 mM TRIS buffer.
The measured photo-physical properties excitation wavelengths (λexc), luminescence decay times (τ), molar absorptivities (ε), estimated luminescence yields (εΦ) of the novel chelates (66 and 80) in 50 mM TRIS buffer (pH 7.75) are in the Table 3. The nine dentate label {2,2′,2″,2′″-{[2-(4-isothiocyanato-phenyl)ethylimino]bis(methylene)bis{4-{[4-(α-galactopyranoxy)phenyl]-ethynyl}bis(methylenenitrilo)}tetrakis(acetato)}-europium(III) (von Loden, P., et al., 2003, Anal. Chem. 75, 3193) was used as a reference label.

[3] = Photo-physical properties of cTnI antibodies labelled with chelate; assay type: physicochemical
Description: The Tnl labeled antibodies were prepared as described in Example 61.
The measured photo-physical properties gave the excitation wavelengths (λexc)at 354 nm, a luminescence decay times (τ) of 460 μs molar absorptivities (c) of 142 000 cm^−1M^−1 and luminescence yields (εΦ) of 10 500 cm^−1M^− for the labelled cTnls with the chelate 66 in 50 mM TRIS buffer (pH 7.75)
Dry measurements gave the luminescence yield of 16 500 cm^−1M^−1, which represents estimated luminescence yields based on the signal measurements after dry immunoassay done as described in the Example 61.

[4] = labelled cTnI antibodies, 50 mM TRIS buffer (pH 7.75)

Compound: O=C([O-])CN(CC(=O)[O-])Cc1cc(-c2ccc3c(c2)C(CC(=O)[O-])(CC(=O)[O-])c2ccccc2-3)cc(CN(CCc2ccc(N=C=S)cc2)Cc2cc(-c3ccc4c(c3)C(CC(=O)[O-])(CC(=O)[O-])c3ccccc3-4)cc(CN(CC(=O)[O-])CC(=O)[O-])n2)n1.[Eu+3].[Na+].[Na+].[Na+].[Na+].[Na+] [Compound 54]
- Abs max (cTnI; Second test): 327 nm

Compound: O=C(O)CN(CC(=O)O)Cc1cc(C#Cc2ccc3c(c2)C(CC(=O)O)(CC(=O)O)c2ccccc2-3)cc(CN(CC(=O)O)CC(=O)O)n1 [Compound 14]
- calculated luminescence yield ε × Φ [1]: 4 200 cm^−1M^−1
- excitation maximum λexc [1]: 342 nm
- luminescence lifetime τ [1]: 355 μs
- molar absorptivity ε [1]: 38 200 cm^−1M^−1
- quantum yield Φ [1]: 0.11
- triplet stage T [1]: 19 200 cm^−1

Compound: O=C(O)CN(CC(=O)O)Cc1cc(-c2ccc3c(c2)C(CC(=O)O)(CC(=O)O)c2ccccc2-3)cc(CN(CC(=O)O)CC(=O)O)n1 [Compound 12]
- calculated luminescence yield ε × Φ [1]: 3 500 cm^−1M^−1
- excitation maximum λexc [1]: 328 nm
- luminescence lifetime τ [1]: 390 μs
- molar absorptivity ε [1]: 35 000 cm^−1M^−1
- quantum yield Φ [1]: 0.10
- triplet stage T [1]: 20 100 cm^−1

Compound: O=C([O-])CN(CC(=O)[O-])Cc1cc(C#Cc2ccc3c(c2)C(CC(=O)[O-])(CC(=O)[O-])c2ccccc2-3)cc(CN(CCc2ccc(N=C=S)cc2)Cc2cc(C#Cc3ccc4c(c3)C(CC(=O)[O-])(CC(=O)[O-])c3ccccc3-4)cc(CN(CC(=O)[O-])CC(=O)[O-])n2)n1.[Eu+3].[Na+].[Na+].[Na+].[Na+].[Na+] [Compound 49]
- Abs max (cTnI; First test): 348 nm
- excitation after coupled in protein (cTnI; label coupled to protein, broad excitation): around 350 nm

Compound: O=C(O)CN(CC(=O)O)Cc1cc(-c2ccc3c(c2)Cc2ccccc2-3)cc(CN(CC(=O)O)CC(=O)O)n1 [Compound 11]
- calculated luminescence yield ε × Φ [1]: 4 800 cm^−1M^−1
- excitation maximum λexc [1]: 323 nm
- luminescence lifetime τ [1]: 380 μs
- molar absorptivity ε [1]: 104 000 cm^−1M^−1
- quantum yield Φ [1]: 0.046
- triplet stage T [1]: 20 000 cm^−1

Compound: O=C([O-])COc1cc(OCC(=O)[O-])c(C#Cc2cc(CN(CC(=O)[O-])Cc3cc(C#Cc4ccc5c(c4)C(CC(=O)[O-])(CC(=O)[O-])c4cc(NC(=S)NCCS(=O)(=O)[O-])ccc4-5)cc(CN(CC(=O)[O-])Cc4cc(C#Cc5c(OCC(=O)[O-])cc(OCC(=O)[O-])cc5OCC(=O)[O-])cc(C(=O)[O-])n4)n3)nc(C(=O)[O-])c2)c(OCC(=O)[O-])c1.[Eu+3].[Na+].[Na+].[Na+].[Na+].[Na+].[Na+].[Na+].[Na+].[Na+].[Na+] [Compound 80]
- estimated luminescence yield ε x Φ [2]: 5 600 cm^−1M^−1
- excitation wavelength λexc [2]: 354 nm
- luminescence decay time τ [2]: 290 μs
- molar absorptivity ε [2]: 105 000 cm^−1M^−1

Compound: O=C(O)CN(CC(=O)O)Cc1cc(C#Cc2ccccc2)cc(CN(CC(=O)O)CC(=O)O)n1 [Ref ligand, 2,2′,2″,2′″-[(4-phenylethynylpyridine-2,6-diyl)bis(methylenenitrilo)]tetrakis-(acetic acid), reference compound]
- calculated luminescence yield ε × Φ [1]: 1 800 cm^−1M^−1
- excitation maximum λexc [1]: 293 nm
- luminescence lifetime τ [1]: 385 μs
- molar absorptivity ε [1]: 26 950 cm^−1M^−1
- quantum yield Φ [1]: 0.067
- triplet stage T [1]: 21 600 cm^−1

Compound: O=C([O-])COc1cc(NC(=S)NCCS(=O)(=O)[O-])ccc1C#Cc1cc(CN(CC(=O)[O-])Cc2cc(C#Cc3ccc4c(c3)C(CC(=O)[O-])(CC(=O)[O-])c3ccccc3-4)cc(C(=O)[O-])n2)nc(CN(CC(=O)[O-])Cc2cc(C#Cc3ccc4c(c3)C(CC(=O)[O-])(CC(=O)[O-])c3ccccc3-4)cc(C(=O)[O-])n2)c1.[Eu+3].[Na+].[Na+].[Na+].[Na+].[Na+].[Na+].[Na+] [Compound 66]
- estimated luminescence yield ε x Φ [2]: 8 700 cm^−1M^−1
- excitation wavelength λexc [2]: 346 nm
- luminescence decay time τ [2]: 540 μs
- molar absorptivity ε [2]: 100 000 cm^−1M^−1
- luminescence yield, dry measurements ([3]; estimated from signal measurements after dry immunoassay): 16 500 cm^−1M^−1
- excitation wavelength λexc [3, 4]: 354 nm
- luminescence decay time τ [3, 4]: 460 μs
- luminescence yield εΦ [3, 4]: 10 500 cm^−1M^−
- molar absorptivity [3, 4]: 142 000 cm^−1M^−1
